Results on 19 compounds are retold here after ChEMBL document CHEMBL6103588, “Promising thiazolidinedione-thiazole based multi-target and neuroprotective hybrids for Alzheimer's disease: Design, synthesis, in-vitro, in-vivo and in-silico studies” (Eur J Med Chem, 2025).

Data set [1] deals with Acetylcholinesterase (Homo sapiens, UniProt P22303). Kind of data set: Inhibition of AChE (unknown origin) using acetylthiocholine iodide as substrate pre-incubated for 30 mins followed by substrate addition and measured after 30 mins by DTNB reagent based Ellman's method. For orientation: Ellman's reagent forms a yellow product with free thiols.
For data set [2], the target named is T1, Amine oxidase [flavin-containing] B (Homo sapiens, UniProt P27338).
T1 sequence (P27338 whole entry): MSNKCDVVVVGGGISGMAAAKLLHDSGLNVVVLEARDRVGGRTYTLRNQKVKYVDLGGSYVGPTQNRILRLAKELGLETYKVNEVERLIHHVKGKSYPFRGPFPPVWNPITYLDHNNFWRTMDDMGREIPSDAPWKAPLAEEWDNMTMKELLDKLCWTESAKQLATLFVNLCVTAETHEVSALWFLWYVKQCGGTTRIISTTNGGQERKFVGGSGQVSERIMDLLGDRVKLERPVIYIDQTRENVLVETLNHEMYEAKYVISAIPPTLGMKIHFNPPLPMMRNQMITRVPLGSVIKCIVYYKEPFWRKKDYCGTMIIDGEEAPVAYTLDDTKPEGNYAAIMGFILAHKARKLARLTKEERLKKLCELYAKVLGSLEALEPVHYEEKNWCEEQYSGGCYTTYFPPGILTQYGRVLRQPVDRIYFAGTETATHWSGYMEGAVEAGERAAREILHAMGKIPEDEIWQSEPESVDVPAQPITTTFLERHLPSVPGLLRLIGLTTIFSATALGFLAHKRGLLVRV
Kind of data set: Inhibition of MAO-B (unknown origin).

In data set [3] the target is Prostaglandin G/H synthase 1 (Homo sapiens, UniProt P23219).
Data set [4] has as its target Acetylcholinesterase (Electrophorus electricus, UniProt O42275). As to the kind of experiment: Inhibition of Electric eel AChE using acetylthiocholine iodide as substrate pre-incubated for 10 mins followed by substrate addition and measured after 15 mins by DTNB reagent based Ellman's method.
Data set [5] concerns the target Cholinesterase (Equus caballus, UniProt P81908). As to the kind of experiment: Inhibition of equine serum BuChE using butyrylthiocholine iodide as substrate pre-incubated for 10 mins followed by substrate addition and measured after 15 mins by DTNB reagent based Ellman's method.
In the next data set the target is Beta-secretase 1 (Homo sapiens, UniProt P56817). As to the kind of experiment: Inhibition of BACE-1 (unknown origin) 667-676- (2, 4-dinitrophenyl) Lys-Arg-Arg amide trifluoroacetate as substrate preincubated for 15 mins followed by substrate addition and measured after 2 hrs by fluorescence spectrometric analysis.
Data set [6] is described as follows: Neurotoxicity against human SH-SY5Y cells assessed as reduction in cell viability upto 50 uM incubated for 24 hrs by MTT assay. Type of data set: toxicity, cell-based. For orientation: Formazan colour is commonly taken as a measure of viable cells.
Data set [7] is described as follows: Lipophilicity, logP of compound. Type of data set: physicochemical. The note with it: octanol/water.
A short description of another data set: in vitro. To be noted: PAMPA, pH 7.4. A general note: In PAMPA a lipid-coated filter parts donor from acceptor wells.
In data set [8] the target is T2, Prostaglandin G/H synthase 2 (Homo sapiens, UniProt P35354).
T2 sequence (P35354 whole entry): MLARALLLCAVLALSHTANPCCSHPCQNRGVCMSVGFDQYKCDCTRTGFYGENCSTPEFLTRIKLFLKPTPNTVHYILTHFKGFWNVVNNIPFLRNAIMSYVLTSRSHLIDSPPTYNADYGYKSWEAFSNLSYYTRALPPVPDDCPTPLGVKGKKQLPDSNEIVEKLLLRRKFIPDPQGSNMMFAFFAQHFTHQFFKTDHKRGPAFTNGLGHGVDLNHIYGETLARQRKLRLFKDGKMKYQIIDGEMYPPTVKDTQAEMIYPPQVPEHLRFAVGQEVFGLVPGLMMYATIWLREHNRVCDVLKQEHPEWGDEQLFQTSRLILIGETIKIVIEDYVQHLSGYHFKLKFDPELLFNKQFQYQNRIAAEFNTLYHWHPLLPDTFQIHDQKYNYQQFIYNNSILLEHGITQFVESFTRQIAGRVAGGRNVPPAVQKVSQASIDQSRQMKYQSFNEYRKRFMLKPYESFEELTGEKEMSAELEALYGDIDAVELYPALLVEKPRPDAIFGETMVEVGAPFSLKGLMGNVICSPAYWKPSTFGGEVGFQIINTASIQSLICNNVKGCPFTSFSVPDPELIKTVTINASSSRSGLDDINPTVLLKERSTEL
Kind of data set: Inhibition of human COX2 by EIA method.

For data set [9], the target named is Cholinesterase (Homo sapiens, UniProt P06276). As to the kind of experiment: Inhibition of BChE (unknown origin).
For data set [10], the target named is T1, Amine oxidase [flavin-containing] B. To be noted: read-out: INH.
Description: Inhibition of MAO-B (unknown origin) at 100 uM relative to control
For data set [11], the target named is T3, Amine oxidase [flavin-containing] A (Homo sapiens, UniProt P21397).
T3 sequence (P21397 whole entry): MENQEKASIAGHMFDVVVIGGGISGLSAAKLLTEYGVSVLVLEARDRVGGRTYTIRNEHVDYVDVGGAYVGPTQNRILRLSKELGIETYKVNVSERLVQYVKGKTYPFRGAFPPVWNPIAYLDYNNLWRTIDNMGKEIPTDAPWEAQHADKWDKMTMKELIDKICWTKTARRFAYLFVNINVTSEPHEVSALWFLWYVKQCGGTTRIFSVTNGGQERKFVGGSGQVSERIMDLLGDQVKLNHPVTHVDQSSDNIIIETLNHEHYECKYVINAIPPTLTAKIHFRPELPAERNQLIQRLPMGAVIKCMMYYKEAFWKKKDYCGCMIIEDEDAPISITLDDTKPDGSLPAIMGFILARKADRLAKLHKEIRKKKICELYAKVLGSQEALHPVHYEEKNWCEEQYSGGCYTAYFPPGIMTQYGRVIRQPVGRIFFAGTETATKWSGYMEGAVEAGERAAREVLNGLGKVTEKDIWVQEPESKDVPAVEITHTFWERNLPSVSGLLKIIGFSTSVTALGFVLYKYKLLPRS
Kind of data set: Inhibition of human MAO-A using tyramine/benzylamine as substrate measured after 30 mins by fluorometric assay.

Data set [12] deals with T1, Amine oxidase [flavin-containing] B. As to the kind of experiment: Inhibition of human MAO-B using tyramine/benzylamine as substrate measured after 30 mins by fluorometric assay.
Data set [13] addresses T2, Prostaglandin G/H synthase 2.
Description: Inhibition of COX-2 (unknown origin) using arachidonic acid as substrate and in presence of TMPD preincubated for 5 mins followed by substrate addition and measured after 5 mins by UV visible spectrophotometric analysis
Data set [14] deals with T4, Polyunsaturated fatty acid 5-lipoxygenase (Homo sapiens, UniProt P09917).
T4 sequence (P09917 whole entry): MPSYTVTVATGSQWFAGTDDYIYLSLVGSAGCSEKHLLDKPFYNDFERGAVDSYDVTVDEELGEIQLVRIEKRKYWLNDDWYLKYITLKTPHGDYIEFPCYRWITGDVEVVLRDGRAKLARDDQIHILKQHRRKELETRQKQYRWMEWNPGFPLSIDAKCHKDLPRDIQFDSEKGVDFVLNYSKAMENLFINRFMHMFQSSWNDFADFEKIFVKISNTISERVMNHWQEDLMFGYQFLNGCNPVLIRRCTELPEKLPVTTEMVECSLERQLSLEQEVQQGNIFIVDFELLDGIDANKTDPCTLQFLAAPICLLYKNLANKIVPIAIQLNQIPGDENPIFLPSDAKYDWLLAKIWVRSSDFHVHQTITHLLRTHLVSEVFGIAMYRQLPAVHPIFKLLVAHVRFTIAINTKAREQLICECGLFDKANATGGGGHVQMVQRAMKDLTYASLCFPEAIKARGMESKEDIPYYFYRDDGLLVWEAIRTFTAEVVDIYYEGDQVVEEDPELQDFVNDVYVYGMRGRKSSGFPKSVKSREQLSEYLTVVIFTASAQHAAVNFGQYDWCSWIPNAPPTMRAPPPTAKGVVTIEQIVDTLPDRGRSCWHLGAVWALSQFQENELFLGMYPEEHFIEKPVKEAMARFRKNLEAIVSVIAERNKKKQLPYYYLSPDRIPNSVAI
Kind of data set: Inhibition of 5-LOX (unknown origin) using linoleic acid as substrate incubated for 5 mins followed by substrate addition.

For orientation: IC50 means the concentration needed to halve the response being measured. For orientation: logP means the decadic logarithm of the partition coefficient of the neutral form, usually between octanol and water. The Papp is a coefficient for how fast a substance crosses the barrier. A low value points to poor permeation.

Each structure is given as a SMILES string.

Beta-secretase 1, sequence (P56817 whole entry): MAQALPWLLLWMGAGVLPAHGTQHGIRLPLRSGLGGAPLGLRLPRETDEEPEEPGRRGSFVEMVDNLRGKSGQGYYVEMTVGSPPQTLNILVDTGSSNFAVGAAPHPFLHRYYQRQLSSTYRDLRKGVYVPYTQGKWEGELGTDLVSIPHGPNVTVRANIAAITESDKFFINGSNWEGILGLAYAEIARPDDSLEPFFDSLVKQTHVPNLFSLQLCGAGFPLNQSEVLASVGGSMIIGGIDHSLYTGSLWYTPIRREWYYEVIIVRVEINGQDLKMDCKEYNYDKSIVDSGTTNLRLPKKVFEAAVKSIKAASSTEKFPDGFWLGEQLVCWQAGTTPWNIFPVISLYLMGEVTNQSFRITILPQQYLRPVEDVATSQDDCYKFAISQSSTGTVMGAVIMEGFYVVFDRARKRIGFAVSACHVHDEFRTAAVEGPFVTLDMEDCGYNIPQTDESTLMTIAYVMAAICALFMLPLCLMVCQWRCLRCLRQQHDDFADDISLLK
Cholinesterase (Equus caballus, UniProt P81908), sequence (P81908 whole entry): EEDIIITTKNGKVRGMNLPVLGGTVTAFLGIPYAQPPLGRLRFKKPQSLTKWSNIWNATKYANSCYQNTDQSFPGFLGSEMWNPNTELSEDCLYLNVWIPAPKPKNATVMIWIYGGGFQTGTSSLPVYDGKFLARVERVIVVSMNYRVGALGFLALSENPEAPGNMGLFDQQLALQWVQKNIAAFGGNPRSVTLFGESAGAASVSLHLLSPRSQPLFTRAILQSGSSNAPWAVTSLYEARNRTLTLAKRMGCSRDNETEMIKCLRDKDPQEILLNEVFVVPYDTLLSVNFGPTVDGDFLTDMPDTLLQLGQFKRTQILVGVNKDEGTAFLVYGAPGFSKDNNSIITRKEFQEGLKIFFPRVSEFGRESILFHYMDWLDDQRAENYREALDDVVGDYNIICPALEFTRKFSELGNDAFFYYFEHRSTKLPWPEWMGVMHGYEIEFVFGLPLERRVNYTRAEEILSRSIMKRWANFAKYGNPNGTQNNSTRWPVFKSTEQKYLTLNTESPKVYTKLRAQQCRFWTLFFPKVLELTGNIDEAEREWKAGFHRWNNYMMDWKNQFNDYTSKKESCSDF
Acetylcholinesterase (Electrophorus electricus, UniProt O42275), sequence (O42275 whole entry): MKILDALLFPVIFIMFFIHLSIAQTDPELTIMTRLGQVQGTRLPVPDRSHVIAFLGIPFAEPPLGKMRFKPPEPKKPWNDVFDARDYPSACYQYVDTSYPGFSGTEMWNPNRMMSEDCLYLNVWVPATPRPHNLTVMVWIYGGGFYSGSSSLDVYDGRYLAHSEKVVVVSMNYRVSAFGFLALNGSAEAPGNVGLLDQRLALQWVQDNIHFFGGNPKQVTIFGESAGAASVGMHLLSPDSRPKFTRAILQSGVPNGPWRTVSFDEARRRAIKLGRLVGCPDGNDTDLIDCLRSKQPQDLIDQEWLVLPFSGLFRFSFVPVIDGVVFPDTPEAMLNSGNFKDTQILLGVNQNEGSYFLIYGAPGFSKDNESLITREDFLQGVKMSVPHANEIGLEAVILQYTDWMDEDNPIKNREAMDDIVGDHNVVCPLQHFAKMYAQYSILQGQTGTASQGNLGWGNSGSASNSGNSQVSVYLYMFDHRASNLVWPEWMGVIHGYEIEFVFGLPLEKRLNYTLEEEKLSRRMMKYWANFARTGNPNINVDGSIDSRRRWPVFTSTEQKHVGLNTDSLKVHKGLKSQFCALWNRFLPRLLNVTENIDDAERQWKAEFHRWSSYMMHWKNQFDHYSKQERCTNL
Prostaglandin G/H synthase 1, sequence (P23219 whole entry): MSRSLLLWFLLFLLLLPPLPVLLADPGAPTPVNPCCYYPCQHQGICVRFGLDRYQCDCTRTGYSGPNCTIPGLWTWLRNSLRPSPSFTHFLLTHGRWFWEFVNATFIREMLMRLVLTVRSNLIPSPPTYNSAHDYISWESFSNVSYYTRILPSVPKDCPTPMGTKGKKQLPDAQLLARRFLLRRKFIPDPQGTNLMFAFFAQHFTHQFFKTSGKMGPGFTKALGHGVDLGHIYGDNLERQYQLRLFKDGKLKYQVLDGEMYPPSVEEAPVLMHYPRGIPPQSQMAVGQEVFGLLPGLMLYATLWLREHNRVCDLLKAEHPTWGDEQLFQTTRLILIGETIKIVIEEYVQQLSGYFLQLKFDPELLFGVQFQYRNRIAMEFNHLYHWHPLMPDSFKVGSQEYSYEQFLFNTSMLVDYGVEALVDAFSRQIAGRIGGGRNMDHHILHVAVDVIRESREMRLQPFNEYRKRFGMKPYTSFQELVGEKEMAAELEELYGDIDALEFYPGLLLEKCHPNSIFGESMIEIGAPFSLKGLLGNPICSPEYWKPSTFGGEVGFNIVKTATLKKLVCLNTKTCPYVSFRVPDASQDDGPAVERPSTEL
Acetylcholinesterase (Homo sapiens, UniProt P22303), sequence (P22303 whole entry): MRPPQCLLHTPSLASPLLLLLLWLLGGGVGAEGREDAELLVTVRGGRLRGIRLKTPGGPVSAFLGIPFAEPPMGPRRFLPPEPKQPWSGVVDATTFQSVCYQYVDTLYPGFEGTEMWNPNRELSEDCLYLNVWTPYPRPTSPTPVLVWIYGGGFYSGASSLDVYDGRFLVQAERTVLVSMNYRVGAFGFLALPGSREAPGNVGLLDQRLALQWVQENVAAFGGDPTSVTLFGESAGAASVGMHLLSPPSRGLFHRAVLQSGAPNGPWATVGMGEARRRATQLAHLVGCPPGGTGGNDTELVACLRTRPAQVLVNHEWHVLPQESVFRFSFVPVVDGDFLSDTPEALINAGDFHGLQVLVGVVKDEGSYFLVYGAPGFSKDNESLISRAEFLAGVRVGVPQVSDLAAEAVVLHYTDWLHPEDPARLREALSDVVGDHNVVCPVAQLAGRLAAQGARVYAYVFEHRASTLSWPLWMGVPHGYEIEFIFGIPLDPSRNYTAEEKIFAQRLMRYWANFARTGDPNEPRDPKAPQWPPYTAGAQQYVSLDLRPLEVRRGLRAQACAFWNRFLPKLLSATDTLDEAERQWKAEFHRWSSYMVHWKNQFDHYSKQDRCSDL
Cholinesterase (Homo sapiens, UniProt P06276), sequence (P06276 whole entry): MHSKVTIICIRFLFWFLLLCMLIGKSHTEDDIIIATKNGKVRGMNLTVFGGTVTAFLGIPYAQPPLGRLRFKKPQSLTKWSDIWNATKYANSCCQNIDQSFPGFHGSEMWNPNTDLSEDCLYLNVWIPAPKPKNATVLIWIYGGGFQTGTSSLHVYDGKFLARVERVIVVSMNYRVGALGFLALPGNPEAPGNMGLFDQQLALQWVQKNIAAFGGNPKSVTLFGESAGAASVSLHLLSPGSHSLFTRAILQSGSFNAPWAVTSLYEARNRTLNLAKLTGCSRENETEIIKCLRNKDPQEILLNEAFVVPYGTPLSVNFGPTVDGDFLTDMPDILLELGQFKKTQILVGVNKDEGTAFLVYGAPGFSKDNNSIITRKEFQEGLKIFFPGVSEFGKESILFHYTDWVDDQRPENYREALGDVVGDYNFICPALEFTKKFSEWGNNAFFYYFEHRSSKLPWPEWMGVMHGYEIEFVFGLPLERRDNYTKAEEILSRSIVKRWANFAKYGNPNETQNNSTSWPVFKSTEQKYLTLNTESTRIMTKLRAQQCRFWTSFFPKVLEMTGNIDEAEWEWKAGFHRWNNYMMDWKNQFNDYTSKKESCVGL
Description for in vitro: Permeability of compound in PBS at pH 7.4 incubated for 20 hrs by PAMPA-BBB assay

Turning to `O=C(/C=C/c1ccc(-c2ccccc2)cc1)Nc1nc2ccc(O)cc2s1`, the results for the IC50 (against Acetylcholinesterase [1]; in data set [2]) were 0.071 µM and 0.037 µM, respectively.

Turning to `O=C1S/C(=C\c2ccccc2)C(=O)N1CNc1nc(-c2cc(Cl)cs2)c(Nc2ccccc2)s1`, the IC50 result in data set [3] was “Not_active”; on Acetylcholinesterase [4] it was “Not_active”; against Cholinesterase [5] it was 0.23 µM; on Beta-secretase 1 (read-out: IC50), 0.49 µM.

`O=C1S/C(=C\c2ccc(O)cc2)C(=O)N1CNc1nc2ccccc2s1`: on Acetylcholinesterase [4] (read-out: IC50), the IC50 is 5.98 µM.

In the case of `O=C1S/C(=C\c2c[nH]c3ccccc23)C(=O)N1CNc1nc(-c2ccccc2)cs1`, the IC50 was 0.052 µM on Acetylcholinesterase [4] (read-out: IC50) and 0.76 µM at Beta-secretase 1 (read-out: IC50). Besides, the Activity result in data set [6] was “Non-toxic”. The compound further yielded a logP in data set [7] of 4.65. This compound also registered a Papp at 20 h in “in vitro” of 107 nm/s.

On Acetylcholinesterase [1], `COc1ccc(C2CC(c3ccc(O)cc3)=NN2c2nc3ccc(C)cc3s2)cc1OC` (stereo not given) returned an IC50 of 8.69 µM.

As to `CS(=O)(=O)c1ccc(-n2cc(/C=C3/SC(=O)NC3=O)c(-c3ccccc3)n2)cc1`, in data set [8], half-maximal inhibition (IC50) required 0.48 µM.

Take `O=C(CN1C(=O)S/C(=C\c2c[nH]c3ccccc23)C1=O)Nc1nc2ccccc2s1`: the figures for the IC50 (in data set [3] (read-out: IC50); on Acetylcholinesterase [4] (read-out: IC50); on Beta-secretase 1 (read-out: IC50)) were 42.5 µM, 0.45 µM and 0.91 µM, respectively.

`Cc1ccc2sc(NC(=O)CCN3CCCC3)nc2c1` yielded an IC50 against Cholinesterase [9] of 15 µM. Further, the inhibition at 100 µM in [10] turned out to be 60%.

In turn, `Cc1nnc2n1-c1ccc(Cl)cc1C(c1ccccc1)=NC2` [ALPRAZOLAM] yielded a Papp at 20 h in the data set “in vitro” of 55.9 nm/s.

`O=C1S/C(=C\c2ccc(-c3ccccc3)cc2)C(=O)N1CNc1nc(-c2ccccc2)cs1`: the results for the IC50 on Acetylcholinesterase [4] (read-out: IC50) and against Beta-secretase 1 were 0.063 µM and “Not_active”, respectively. Moreover, the Activity result in data set [6] is on record as “Non-toxic”. The logP in [7] worked out at 6.78. Also, the apparent permeability (Papp) at 20 h in the data set “in vitro” amounted to 142 nm/s.

Turning to `C/C=C1\SC(=O)N(CNc2nc(-c3cc(Cl)cs3)c(Nc3ccc(S(N)(=O)=O)cc3)s2)C1=O`, the IC50 entry in [3] was “Not_active”; at Acetylcholinesterase [4], “Not_active”; on Cholinesterase [5], 0.11 µM; at Beta-secretase 1 (read-out: IC50), 0.51 µM. Also, the Activity entry in [6] was “Non-toxic”. In addition, the logP in data set [7] worked out at 4.86. In addition, in “in vitro”, the Papp at 20 h came out at 91 nm/s.

In the case of `O=C1S/C(=C\c2ccccc2)C(=O)N1c1csc(Nc2ccccc2)n1`, the IC50 in data set [3] (read-out: IC50) stood at 29.3 µM; on Acetylcholinesterase [4] (read-out: IC50), 0.29 µM; against Cholinesterase [5], 7.18 µM; on Beta-secretase 1 (read-out: IC50) it was 10.2 µM.

Turning to `O=C1S/C(=C\c2c[nH]c3ccccc23)C(=O)N1c1csc(Nc2ccccc2)n1`, the IC50 is 33.4 µM in [3] (read-out: IC50), 0.69 µM at Acetylcholinesterase [4] (read-out: IC50), 17.4 µM against Cholinesterase [5] and 19.2 µM at Beta-secretase 1 (read-out: IC50).

As to `O=C(CN1C(=O)S/C(=C\c2c[nH]c3ccccc23)C1=O)Nc1nccs1`, the values for the IC50 on Acetylcholinesterase [4] (read-out: IC50) and at Beta-secretase 1 (read-out: IC50) were 0.16 µM and 1.18 µM, respectively.

On Cholinesterase [9], `O=C(CCN1CCCC1)Nc1nc2ccc(Br)cc2s1` gave an IC50 of 12 µM. Besides, in data set [10], the inhibition at 100 µM turned out to be 66%.

Turning to `O=C(CN1C(=O)S/C(=C\c2ccc(O)cc2)C1=O)Nc1nccs1`, the IC50 in [3] (read-out: IC50) is 51.8 µM; on Acetylcholinesterase [4] (read-out: IC50) it was 9.03 µM.

Consider `O=C(CN1C(=O)S/C(=C\c2ccc(O)cc2)C1=O)Nc1nc2ccccc2s1`, for which the IC50 at Acetylcholinesterase [4] (read-out: IC50) was 2.76 µM; in [11] it was “Not_active”.

Compound `CCn1cc(C(=O)O)c(=O)c2cc(F)c(N3CCNC(C)C3)c(F)c21` (stereo not given) [LOMEFLOXACIN] returned a Papp at 20 h in “in vitro” of 11.3 nm/s.

With `O=C(/C=C/c1ccccc1)Nc1ccc2sc(NCN3C(=O)CSC3=O)nc2c1`, the IC50 was 9.07 µM on Acetylcholinesterase [4] (read-out: IC50); 65.4 µM in data set [11] (read-out: IC50); 14.7 µM in data set [12]; “Not_active” on Beta-secretase 1; 0.107 µM in [13]; 0.21 µM in data set [14].
